Measurements published in patent US20230026856A1, “HETEROCYCLIC COMPOUNDS AND METHODS OF USE THEREOF” (SPARCBIO LLC, priority 2020, published 2023).

Key:
[1] = target: KRAS G12C protein (Homo sapiens, UniProt P01116, G12C); test: Nucleotide exchange assay, Method III (TR-FRET, association of KRAS G12C with Raf-RBD, SOS1-mediated exchange); assay type: biochemical; conditions: overnight (18 hr) incubation with GDP-bound KRAS G12C
Description: Method III. Inhibition of SOS1-mediated exchange of GDP for GTP on the KRAS G12C protein was measured in a biochemical assay that monitors association of KRAS G12C protein with the Ras-binding domain of Raf (Raf-RBD), where the association is coupled to exchange of GDP to GTP on the KRAS G12C protein. The assay was performed at WuXi AppTec (Shanghai, China). Compounds were serially diluted in 3-fold dilutions to 11 concentrations and spotted into the wells of an assay plate in a total volume of 150 nL DMSO per well. A 2× enzyme mix was prepared by diluting GDP-bound, His-tagged KRAS G12C to 25 nM in assay buffer. 10 μL/well of 2× enzyme mix was added to all wells, and the plate was sealed and incubated overnight (18 hr) at 23° C. 4×SOS1/GDP and 4×SOS1/GTP were prepared in assay buffer. 5 μL/well of 4×SOS1/GDP mix was added to negative control wells, 5 μL/well of 4×SOS1/GTP mix was added to the remaining wells, and the plate was further incubated at 23° C. for 1 hr. Finally, FLAG-tagged Raf-RBD is added to the reaction mixture along with a pair of FRET donor- and acceptor-conjugated antibodies specific for the FLAG-tagged Raf-RBD and His-tagged KRAS G12C proteins. A 4× Raf-RBD/Tb-anti-FLAG/D2-anti-His mix was prepared in assay buffer, and 5 μL/well of the mix was added to all wells, followed by incubation at room temperature for 2 hr. The TR-FRET signals, which increase with association of KRAS G12C and Raf-RBD, were measured on a Perkin Elmer Envision 2104 plate reader, and data were analyzed by non-linear regression to obtain IC50 values for inhibition by compounds. Table 2 includes results of the assay of Method III. ‘+++’ indicates IC50 values ≤300 nM, ‘++’ indicates IC50 values between 300 nM-3 μM, and ‘+’ indicates IC50 values ≥3 μM.

[2] = tested on: MIA PaCa-2; test: Cell proliferation assay panel (Cell Titer-Glo), MIA PaCa-2; assay type: cell-based; conditions: Homo sapiens, MIA PaCa-2, 72 h
Description: Potency of compounds was determined in cell proliferation assays in a panel of cancer cell lines. Cells were seeded in 384-well plates (Corning, Cat. #3765) at specified densities in 40 μL of culture medium and incubated overnight at 37° C. in a 5% CO2 incubator (culture conditions). With a robotic dispenser, serially diluted test compounds were added in a volume of 20 nL DMSO to wells in the culture plate to achieve the final desired concentrations of test compounds, and the cells were further incubated in culture conditions for 72 hr. The assay was terminated by addition of 25 μL of Cell Titer-Glo reagent (Promega, Madison, Wis.) to each well. Contents were mixed, the plate was incubated for 10 min at room temperature and luminescence was measured. The IC50 value of each test compound was calculated with XLFit curve fitting software. Results are shown in Table 4. ‘+++’ indicates IC50 values ≤300 nM, ‘++’ indicates IC50 values between 300 nM-3 μM, and ‘+’ indicates IC50 values ≥3 μM.

[3] = tested on: Phosphorylation of ERK in NCI-H358 cells; test: pERK assay, Method II (homogeneous TR-FRET, phospho-ERK Thr202/Tyr204); assay type: cell-based; conditions: Homo sapiens, 4 hr compound treatment
Description: Method II. Phosphorylation of ERK was assessed by a homogeneous TR-FRET assay (Advanced phospho-ERK (Thr202/Tyr204) cellular kit; Cat. #64AERPEH, Cisbio). In brief, NCI-H358 cells were seeded in a 384-well culture plate at a density of 6000 cells in 40 μL medium/well and grown overnight at 37° C. and 5% CO2. Each test compound was dosed in duplicate in a 10-dose 3-fold titration starting at 10 μM or 2 μM. The culture plate was then incubated for 4 hr in the incubator. At the end of the compound treatment, the medium was removed, 35 μL of lysis buffer was added to each well, and the plate was agitated on a plate shaker for 40 mins at 4° C. An antibody cocktail of phospho-ERK1/2 Eu Cryptate antibody and Phospho-ERK1/2 d2 antibody was prepared by separately diluting the antibodies 20-fold with detection buffer and then mixing them together. 3.4 μL of antibody cocktail was dispensed to each well of an empty 384-well white ProxiPlus assay plate (Perkin Elmer), and the plate briefly centrifuged. 13.6 μL of cell lysate was then added to the antibody-containing wells, and the plate was briefly centrifuged and then incubated 2 hr at room temperature. The plate was read on a fluorescence plate reader (Envision2104, Perkin Elmer), with an excitation wavelength of 337 nm and emission wavelengths of 615 nm and 665 nm. The IC50 value of each test compound was calculated with XLFit curve fitting software. Results are shown in Table 6. ‘+++’ indicates IC50 values ≤300 nM, ‘++’ indicates IC50 values between 300 nM-3 μM, and ‘+’ indicates IC50 values ≥3 μM.

[4] = tested on: NCI-H358 cells; test: 3D cell proliferation assay (Cell Titer-Glo 3D); assay type: cell-based; conditions: Homo sapiens, NCI-H358, 168 h, NCI-H358, 3D (ultra-low attachment); 7 days
Description: NCI-H358 cells (ATCC® CRL-5807™) were plated in a 384-well Black/Clear Round Bottom Ultra-Low Attachment Microplate (Corning) in medium (RPMI-1640+10% FBS) at a density of 1000 cells in 50 μL per well, then incubated overnight at 37° C. and 5% CO2. Cells were treated with test compounds at 9 concentrations within a specified concentration range (e.g., 0.5 nM-10 μM) for generation of dose response curves. Test compounds were prepared by 1:3 serial dilution in DMSO from a specified starting concentration (e.g., 20 μM, 2 μM or 0.2 μM) and then added to wells of the assay plate in a total volume of 150 nL DMSO. The cells were further incubated at 37° C. and 5% CO2 for 7 days. Cell viability was assessed by adding 40 μL of Cell Titer-Glo® 3D reagent (Cat. No.: G9683, Promega) to each well and reading luminescence after mixing and incubation of the samples. The IC50 value of each test compound was calculated with XLFit curve fitting software.

KRAS G12C protein, sequence (P01116 1-188 isoform P01116-2 G12C): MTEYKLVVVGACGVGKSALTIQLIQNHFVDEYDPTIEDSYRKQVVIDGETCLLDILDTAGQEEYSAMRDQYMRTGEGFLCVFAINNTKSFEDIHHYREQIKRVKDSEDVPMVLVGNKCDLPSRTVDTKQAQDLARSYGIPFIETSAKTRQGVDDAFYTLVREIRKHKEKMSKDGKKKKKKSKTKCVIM

Structure (SMILES) | IC50 [1] [nM] | IC50 [2] [nM] | IC50 [3] [nM] | IC50 [4] [nM]
C=CC(=O)N1CCN(c2c(S(C)(=O)=O)c(=O)n(-c3c(C)ccnc3C(C)C)c3nc(-c4cccc5sc(N)nc45)c(F)cc23)CC1 (single isomer, unassigned) [250 (Isomer A), 4-(4-acryloylpiperazin-1-yl)-7-(2-aminobenzo[d]thiazol-4-yl)-6-fluoro-1-(2-isopropyl-4-methylpyridin-3-yl)-3-(methylsulfonyl)-1,8-naphthyridin-2(1H)-one] | ≤ 300 | 300 to 3000 | ≤ 300 | 
C=CC(=O)N1CCN(c2c(C(=O)NC)c(=O)n(-c3c(C)ccnc3C(C)C)c3nc(-c4cccc5sc(N)nc45)c(F)cc23)CC1 (single isomer, unassigned) [254 (Isomer A), 4-(4-acryloylpiperazin-1-yl)-7-(2-aminobenzo[d]thiazol-4-yl)-6-fluoro-1-(2-isopropyl-4-methylpyridin-3-yl)-N-methyl-2-oxo-1,2-dihydro-1,8-naphthyridine-3-carboxamide] | 300 to 3000 | ≥ 3000 |  | 
C=CC(=O)N1CCN(c2c(S(C)(=O)=O)c(=O)n(-c3c(C)ccnc3C(C)C)c3nc(-c4c(C)ccc5[nH]ncc45)c(F)cc23)CC1 (single isomer, unassigned) [124 (Isomer A), 4-(4-acryloylpiperazin-1-yl)-6-fluoro-1-(2-isopropyl-4-methylpyridin-3-yl)-7-(5-methyl-1H-indazol-4-yl)-3-(methylsulfonyl)-1,8-naphthyridin-2(1H)-one] | ≤ 300 | 300 to 3000 | 300 to 3000 | 
C=CC(=O)N1CCN(c2c(C(=O)NCC)c(=O)n(-c3c(C)ccnc3C(C)C)c3nc(-c4c(O)cccc4F)c(F)cc23)CC1 (single isomer, unassigned) [293 (Isomer A), 4-(4-acryloylpiperazin-1-yl)-N-ethyl-6-fluoro-7-(2-fluoro-6-hydroxyphenyl)-1-(2-isopropyl-4-methylpyridin-3-yl)-2-oxo-1,2-dihydro-1,8-naphthyridine-3-carboxamide] | ≤ 300 | 300 to 3000 | 300 to 3000 | ≤ 100
C=CC(=O)N1CCN(c2c(S(C)(=O)=O)c(=O)n(-c3c(C)ccnc3C(C)C)c3c(F)c(-c4c(C)ccc5[nH]ncc45)c(Cl)cc23)CC1 (single isomer, unassigned) [187 (Isomer C), 4-(4-acryloylpiperazin-1-yl)-6-chloro-8-fluoro-1-(2-isopropyl-4-methylpyridin-3-yl)-7-(5-methyl-1H-indazol-4-yl)-3-(methylsulfonyl)quinolin-2(1H)-one] | ≤ 300 | 300 to 3000 |  | ≤ 100
C=CC(=O)N1CCN(c2c(S(C)(=O)=O)c(=O)n(-c3c(C)ccnc3C(C)C)c3nc(-c4cccc5sc(N)nc45)c(F)cc23)C[C@H]1C (single isomer, unassigned) [249 (Isomer A)] | ≤ 300 | 300 to 3000 |  | 
C=CC(=O)N1CCN(c2c(C(=O)NC)c(=O)n(-c3c(C)ccnc3C(C)C)c3nc(-c4c(C)ccc5[nH]ncc45)c(F)cc23)CC1 (single isomer, unassigned) [116 (Isomer A), 4-(4-acryloylpiperazin-1-yl)-6-fluoro-1-(2-isopropyl-4-methylpyridin-3-yl)-N-methyl-7-(5-methyl-1H-indazol-4-yl)-2-oxo-1,2-dihydro-1,8-naphthyridine-3-carboxamide] | ≤ 300 | ≥ 3000 |  | 
